From patent publication US10669284B2, “Fused thiazolopyrimidine derivatives as MNKS inhibitors” (LIFEARC, priority 2015, dated 2020)

How the values were obtained:
[1] = molecular target: T1, PIP4K2A (Homo sapiens, UniProt P48426); assay: Kinase selectivity screen PIP4K2A; details: read-out: % inhibition of PIP4K2A
T1 sequence (P48426 1-406): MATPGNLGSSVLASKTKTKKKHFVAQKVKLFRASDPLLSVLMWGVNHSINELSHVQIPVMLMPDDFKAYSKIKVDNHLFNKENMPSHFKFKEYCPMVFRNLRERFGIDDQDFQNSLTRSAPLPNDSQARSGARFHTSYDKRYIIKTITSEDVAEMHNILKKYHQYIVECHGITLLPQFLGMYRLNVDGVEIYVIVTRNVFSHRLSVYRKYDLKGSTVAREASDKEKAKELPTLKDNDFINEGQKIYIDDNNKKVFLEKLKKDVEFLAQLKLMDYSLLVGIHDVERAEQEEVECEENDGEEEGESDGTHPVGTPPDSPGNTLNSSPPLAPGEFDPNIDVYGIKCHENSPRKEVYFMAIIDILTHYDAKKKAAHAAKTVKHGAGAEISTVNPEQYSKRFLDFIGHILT

[2] = molecular target: T2, ACVR1B (Homo sapiens, UniProt P36896); assay: Kinase selectivity screen ACVR1B; details: read-out: % inhibition of ACVR1B
T2 sequence (P36896 24-505): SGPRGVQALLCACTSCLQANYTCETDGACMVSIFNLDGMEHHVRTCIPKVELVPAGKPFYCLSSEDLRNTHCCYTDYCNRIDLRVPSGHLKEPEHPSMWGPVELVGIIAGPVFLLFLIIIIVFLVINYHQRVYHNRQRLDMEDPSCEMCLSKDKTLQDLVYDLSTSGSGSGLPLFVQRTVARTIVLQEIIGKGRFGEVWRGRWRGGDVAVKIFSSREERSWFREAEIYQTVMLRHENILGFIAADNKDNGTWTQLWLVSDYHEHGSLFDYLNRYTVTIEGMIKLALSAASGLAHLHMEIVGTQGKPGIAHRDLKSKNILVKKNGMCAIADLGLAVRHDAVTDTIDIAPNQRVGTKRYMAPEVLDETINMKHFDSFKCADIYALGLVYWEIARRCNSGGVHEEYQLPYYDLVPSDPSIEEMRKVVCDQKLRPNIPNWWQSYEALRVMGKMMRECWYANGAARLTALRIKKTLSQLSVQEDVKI

[3] = molecular target: PIP5K1A (Homo sapiens, UniProt Q99755); assay: Kinase selectivity screen PIP5K1A; details: read-out: % inhibition of PIP5K1A
[4] = molecular target: YES1 (Homo sapiens, UniProt P07947); assay: Kinase selectivity screen YES1; details: read-out: % inhibition of YES1
[5] = molecular target: CDK9/CCNT1 (Homo sapiens, UniProt P50750); assay: Kinase selectivity screen CDK9/CCNT1; details: read-out: % inhibition of CDK9/CCNT1
CDK9/CCNT1, sequence (P50750 whole entry, species assumed): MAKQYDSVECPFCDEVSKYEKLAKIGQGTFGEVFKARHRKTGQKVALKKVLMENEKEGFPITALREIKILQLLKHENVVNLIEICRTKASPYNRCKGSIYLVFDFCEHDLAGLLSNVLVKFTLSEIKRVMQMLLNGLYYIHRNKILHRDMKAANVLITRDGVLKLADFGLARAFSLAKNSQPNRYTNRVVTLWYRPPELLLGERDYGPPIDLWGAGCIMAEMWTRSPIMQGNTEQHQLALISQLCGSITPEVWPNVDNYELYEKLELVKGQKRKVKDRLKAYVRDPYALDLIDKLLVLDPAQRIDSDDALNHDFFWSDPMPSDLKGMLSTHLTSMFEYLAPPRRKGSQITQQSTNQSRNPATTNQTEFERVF
CDK9/CCNT1, sequence (O60563 whole entry partner, species assumed): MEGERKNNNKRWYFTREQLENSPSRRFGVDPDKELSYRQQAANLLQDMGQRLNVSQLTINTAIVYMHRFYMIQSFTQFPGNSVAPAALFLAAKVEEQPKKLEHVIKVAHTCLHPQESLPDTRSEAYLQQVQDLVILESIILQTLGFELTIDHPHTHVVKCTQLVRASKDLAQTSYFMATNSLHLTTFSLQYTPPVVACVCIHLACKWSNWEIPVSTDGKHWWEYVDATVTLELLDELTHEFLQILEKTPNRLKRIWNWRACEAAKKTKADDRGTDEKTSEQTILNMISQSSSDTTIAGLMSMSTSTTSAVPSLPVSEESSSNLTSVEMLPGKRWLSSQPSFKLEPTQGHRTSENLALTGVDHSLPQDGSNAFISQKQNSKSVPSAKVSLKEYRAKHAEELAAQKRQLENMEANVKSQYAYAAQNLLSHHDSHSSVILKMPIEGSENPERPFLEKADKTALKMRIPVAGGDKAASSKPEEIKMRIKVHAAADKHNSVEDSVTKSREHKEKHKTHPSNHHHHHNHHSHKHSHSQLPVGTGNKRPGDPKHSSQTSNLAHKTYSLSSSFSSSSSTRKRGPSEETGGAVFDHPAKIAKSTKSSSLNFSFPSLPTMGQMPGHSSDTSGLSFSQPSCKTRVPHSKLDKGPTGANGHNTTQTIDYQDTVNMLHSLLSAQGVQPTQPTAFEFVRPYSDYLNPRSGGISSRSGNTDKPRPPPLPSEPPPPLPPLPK

PIP5K1A, sequence (Q99755 whole entry, species assumed): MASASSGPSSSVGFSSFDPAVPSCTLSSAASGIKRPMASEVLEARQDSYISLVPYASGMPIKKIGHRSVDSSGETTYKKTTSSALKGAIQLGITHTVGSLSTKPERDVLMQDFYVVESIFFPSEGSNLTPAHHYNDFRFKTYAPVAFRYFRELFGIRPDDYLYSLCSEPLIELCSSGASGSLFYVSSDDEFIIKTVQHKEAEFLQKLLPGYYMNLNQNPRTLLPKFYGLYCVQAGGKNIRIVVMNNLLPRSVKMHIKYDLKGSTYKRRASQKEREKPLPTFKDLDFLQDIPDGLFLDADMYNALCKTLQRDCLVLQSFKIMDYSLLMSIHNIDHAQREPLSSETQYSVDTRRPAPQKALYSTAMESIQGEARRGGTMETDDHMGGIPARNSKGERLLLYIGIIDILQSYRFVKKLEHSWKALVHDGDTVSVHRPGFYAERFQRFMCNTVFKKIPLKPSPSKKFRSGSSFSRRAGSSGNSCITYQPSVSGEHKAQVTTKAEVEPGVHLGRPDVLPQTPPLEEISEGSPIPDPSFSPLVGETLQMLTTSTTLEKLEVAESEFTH
YES1, sequence (P07947 whole entry, species assumed): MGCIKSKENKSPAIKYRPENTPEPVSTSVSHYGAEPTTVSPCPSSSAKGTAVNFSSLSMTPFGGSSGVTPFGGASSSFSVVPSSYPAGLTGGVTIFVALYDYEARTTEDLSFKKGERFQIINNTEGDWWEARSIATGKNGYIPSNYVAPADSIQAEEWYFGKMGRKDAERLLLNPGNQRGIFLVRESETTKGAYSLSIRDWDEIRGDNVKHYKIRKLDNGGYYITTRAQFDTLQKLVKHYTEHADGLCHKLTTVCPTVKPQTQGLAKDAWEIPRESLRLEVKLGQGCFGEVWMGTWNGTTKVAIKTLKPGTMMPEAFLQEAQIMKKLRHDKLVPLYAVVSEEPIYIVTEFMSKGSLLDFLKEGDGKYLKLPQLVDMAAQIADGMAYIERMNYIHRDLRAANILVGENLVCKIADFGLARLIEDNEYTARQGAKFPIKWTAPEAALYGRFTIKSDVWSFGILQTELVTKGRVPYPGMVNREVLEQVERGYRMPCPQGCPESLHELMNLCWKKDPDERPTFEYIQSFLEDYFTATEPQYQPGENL

Structure (SMILES)	inhibition at 1 µM [1]	inhibition at 1 µM [2]	inhibition at 1 µM [3]	inhibition at 1 µM [4]	inhibition at 1 µM [5]
CC(C)Oc1cc(F)ccc1Nc1ncnc2sc(C(=O)NCC3CCNCC3)nc12 [Example 10, 7-(4-fluoro-2-isopropoxy-anilino)-N-(4-piperidylmethyl)thiazolo[5,4-d]pyrimidine-2-carboxamide]	12%	6%	2%	4%	2%
O=C(NCC1CCNCC1)c1nc2c(N3CCc4cc(F)ccc43)ncnc2s1 [Example 58, 7-(5-fluoroindolin-1-yl)-N-(4-piperidylmethyl)thiazolo[5,4-d]pyrimidine-2-carboxamide]	7%	0%	1%	14%	11%
CN(C)CCCNC(=O)c1nc2c(N3CCc4cc(F)ccc43)ncnc2s1 [Example 64, N-[3-(dimethylamino)propyl]-7-(5-fluoroindolin-1-yl)thiazolo[5,4-d]pyrimidine-2-carboxamide]	0%	15%	0%	4%	4%
